Assay results: article PMC11728000, “Antitumor Activity and Multi-Target Mechanism of Phenolic Schiff Bases Bearing Methanesulfonamide Fragments: Cell Cycle Analysis and a Molecular Modeling Study” (International Journal of Molecular Sciences, 2024)
Read-outs that look alike come from different tables or passages of the source.

How the values were obtained:
CCRF-CEM = system: CCRF-CEM; set-up: method as in https://dtp.cancer.gov/dtpstandard/dwindex/index.jsp; conditions: ref https://dtp.cancer.gov/dtpstandard/dwindex/index.jsp; cited from earlier work
K-562 = system: K-562; set-up: method as in https://dtp.cancer.gov/dtpstandard/dwindex/index.jsp; conditions: ref https://dtp.cancer.gov/dtpstandard/dwindex/index.jsp; cited from earlier work
SR = system: SR; set-up: method as in https://dtp.cancer.gov/dtpstandard/dwindex/index.jsp; conditions: ref https://dtp.cancer.gov/dtpstandard/dwindex/index.jsp; cited from earlier work
HOP-62 = system: HOP-62; set-up: method as in https://dtp.cancer.gov/dtpstandard/dwindex/index.jsp; conditions: ref https://dtp.cancer.gov/dtpstandard/dwindex/index.jsp; cited from earlier work
COLO 205 = system: COLO 205; set-up: method as in https://dtp.cancer.gov/dtpstandard/dwindex/index.jsp; conditions: ref https://dtp.cancer.gov/dtpstandard/dwindex/index.jsp; cited from earlier work
HCC-2998 = system: HCC-2998; set-up: method as in https://dtp.cancer.gov/dtpstandard/dwindex/index.jsp; conditions: ref https://dtp.cancer.gov/dtpstandard/dwindex/index.jsp; cited from earlier work
HCT-15 = system: HCT-15; set-up: method as in https://dtp.cancer.gov/dtpstandard/dwindex/index.jsp; conditions: ref https://dtp.cancer.gov/dtpstandard/dwindex/index.jsp; cited from earlier work
HT29 = system: HT29; set-up: method as in https://dtp.cancer.gov/dtpstandard/dwindex/index.jsp; conditions: ref https://dtp.cancer.gov/dtpstandard/dwindex/index.jsp; cited from earlier work
SW-620 = system: SW-620; set-up: method as in https://dtp.cancer.gov/dtpstandard/dwindex/index.jsp; conditions: ref https://dtp.cancer.gov/dtpstandard/dwindex/index.jsp; cited from earlier work
SF-539 = system: SF-539; set-up: method as in https://dtp.cancer.gov/dtpstandard/dwindex/index.jsp; conditions: ref https://dtp.cancer.gov/dtpstandard/dwindex/index.jsp; cited from earlier work
LOX IMVI = system: LOX IMVI; set-up: method as in https://dtp.cancer.gov/dtpstandard/dwindex/index.jsp; conditions: ref https://dtp.cancer.gov/dtpstandard/dwindex/index.jsp; cited from earlier work
M14 = system: M14; set-up: method as in https://dtp.cancer.gov/dtpstandard/dwindex/index.jsp; conditions: ref https://dtp.cancer.gov/dtpstandard/dwindex/index.jsp; cited from earlier work
MDA-MB-435 = system: MDA-MB-435; set-up: method as in https://dtp.cancer.gov/dtpstandard/dwindex/index.jsp; conditions: ref https://dtp.cancer.gov/dtpstandard/dwindex/index.jsp; cited from earlier work
OVCAR-4 [1] = system: OVCAR-4; set-up: method as in https://dtp.cancer.gov/dtpstandard/dwindex/index.jsp; conditions: ref https://dtp.cancer.gov/dtpstandard/dwindex/index.jsp; cited from earlier work
OVCAR-5 [2] = system: OVCAR-5; set-up: method as in https://dtp.cancer.gov/dtpstandard/dwindex/index.jsp; conditions: ref https://dtp.cancer.gov/dtpstandard/dwindex/index.jsp; cited from earlier work
OVCAR-8 = system: OVCAR-8; set-up: method as in https://dtp.cancer.gov/dtpstandard/dwindex/index.jsp; conditions: ref https://dtp.cancer.gov/dtpstandard/dwindex/index.jsp; cited from earlier work
SK-OV-3 = system: SK-OV-3; set-up: method as in https://dtp.cancer.gov/dtpstandard/dwindex/index.jsp; conditions: ref https://dtp.cancer.gov/dtpstandard/dwindex/index.jsp; cited from earlier work
SN12C [3] = system: SN12C; set-up: method as in https://dtp.cancer.gov/dtpstandard/dwindex/index.jsp; conditions: ref https://dtp.cancer.gov/dtpstandard/dwindex/index.jsp; cited from earlier work
HS 578T = system: HS 578T; set-up: method as in https://dtp.cancer.gov/dtpstandard/dwindex/index.jsp; conditions: ref https://dtp.cancer.gov/dtpstandard/dwindex/index.jsp; cited from earlier work
[4] = system: Leukemia subpanel tumor cell lines; conditions: cited from earlier work; for GI50: read-out: GI50, subpanel average, ref https://dtp.cancer.gov/dtpstandard/dwindex/index.jsp; for CC50: read-out: LC50, subpanel average, ref https://dtp.cancer.gov/dtpstandard/dwindex/index.jsp; for TGI, subpanel average: ref https://dtp.cancer.gov/dtpstandard/dwindex/index.jsp
[5] = system: Colon Cancer subpanel tumor cell lines; conditions: cited from earlier work; for GI50: read-out: GI50, subpanel average, ref https://dtp.cancer.gov/dtpstandard/dwindex/index.jsp; for CC50: read-out: LC50, subpanel average, ref https://dtp.cancer.gov/dtpstandard/dwindex/index.jsp; for TGI, subpanel average: ref https://dtp.cancer.gov/dtpstandard/dwindex/index.jsp
[6] = system: CNS Cancer subpanel tumor cell lines; conditions: cited from earlier work; for GI50: read-out: GI50, subpanel average, ref https://dtp.cancer.gov/dtpstandard/dwindex/index.jsp; for CC50: read-out: LC50, subpanel average, ref https://dtp.cancer.gov/dtpstandard/dwindex/index.jsp; for TGI, subpanel average: ref https://dtp.cancer.gov/dtpstandard/dwindex/index.jsp
[7] = system: Melanoma subpanel tumor cell lines; conditions: cited from earlier work; for GI50: read-out: GI50, subpanel average, ref https://dtp.cancer.gov/dtpstandard/dwindex/index.jsp; for CC50: read-out: LC50, subpanel average, ref https://dtp.cancer.gov/dtpstandard/dwindex/index.jsp; for TGI, subpanel average: ref https://dtp.cancer.gov/dtpstandard/dwindex/index.jsp
[8] = system: 59 human cancer cell lines; conditions: full panel mean-graph midpoint, ref https://dtp.cancer.gov/dtpstandard/dwindex/index.jsp, cited from earlier work; for GI50: read-out: GI50 MG-MID; for CC50: read-out: LC50 MG-MID
NCI-H226 = test: NCI anticancer screening (SRB), Non-Small Cell Lung Cancer subpanel; format: cell-based, human; conditions: for GI%: 10.0 µM in one dose
SK-MEL-5 = test: NCI anticancer screening (SRB), Melanoma subpanel; format: cell-based, human; conditions: for GI%: 10.0 µM in one dose
OVCAR-4 [9] = test: NCI anticancer screening (SRB), Ovarian Cancer subpanel; format: cell-based, human; conditions: for GI%: 10.0 µM in one dose
OVCAR-5 [10] = test: as above; format: cell-based, human; conditions: for GI%: 10.0 µM in one dose
SN12C [11] = test: NCI anticancer screening (SRB), Renal Cancer subpanel; format: cell-based, human; conditions: for GI%: 10.0 µM in one dose
MDA-MB-468 = test: NCI anticancer screening (SRB), Breast Cancer subpanel; format: cell-based, human; conditions: for GI%: 10.0 µM in one dose
COX-2 = biological target: T1, COX-2 (Ovis aries, UniProt P79208); test: biochemical; conditions: read-out: IC50, COX-2 Inhibition
T1 construct: purchased Cayman Chemical 560101
Description: the measured protein at the end of the drug treatment as compared to that at the beginning) indicating a net loss of cells following treatment was calculated from [(Ti − Tz)/Tz] […] = − 50.
Values were calculated for each of these three parameters if the activity level was reached; however, if the effect was not reached or exceeded, that parameter's value was expressed as more or less than the maximum or minimum concentration tested. The log GI50, log TGI, and log LC50 were then determined and defined as the mean of the logs of the individual GI50, TGI, and LC50 values. The lowest values are obtained with the most sensitive cell lines. The compound with […]
2. In vitro cytotoxic activity towards normal fibroblast (WI-38) cells Cell Lines were obtained from the American Type Culture Collection; cells were cultured using DMEM (Invitrogen/Life Technologies) supplemented with 10% FBS (Hyclone), ten ug/ml of insulin (Sigma), and 1% penicillin–streptomycin. Cultures were removed from the incubator into a laminar flow hood, reconstituted with 3 mL of balanced salt solution without phenol red and serum, and then added to an amount equal to 10% of the culture medium volume. […]
medium volume. The absorbance was measured Spectrophotometrically at a wavelength of 570 […]
The ability of the test compounds to inhibit COX-2 was determined using an enzyme immunoassay […]

NCI-H522 = system: NCI-H522; set-up: method as in https://dtp.cancer.gov/dtpstandard/dwindex/index.jsp; conditions: ref https://dtp.cancer.gov/dtpstandard/dwindex/index.jsp; cited from earlier work
[12] = Homo sapiens, five concentrations

T1 sequence (P79208 17-603): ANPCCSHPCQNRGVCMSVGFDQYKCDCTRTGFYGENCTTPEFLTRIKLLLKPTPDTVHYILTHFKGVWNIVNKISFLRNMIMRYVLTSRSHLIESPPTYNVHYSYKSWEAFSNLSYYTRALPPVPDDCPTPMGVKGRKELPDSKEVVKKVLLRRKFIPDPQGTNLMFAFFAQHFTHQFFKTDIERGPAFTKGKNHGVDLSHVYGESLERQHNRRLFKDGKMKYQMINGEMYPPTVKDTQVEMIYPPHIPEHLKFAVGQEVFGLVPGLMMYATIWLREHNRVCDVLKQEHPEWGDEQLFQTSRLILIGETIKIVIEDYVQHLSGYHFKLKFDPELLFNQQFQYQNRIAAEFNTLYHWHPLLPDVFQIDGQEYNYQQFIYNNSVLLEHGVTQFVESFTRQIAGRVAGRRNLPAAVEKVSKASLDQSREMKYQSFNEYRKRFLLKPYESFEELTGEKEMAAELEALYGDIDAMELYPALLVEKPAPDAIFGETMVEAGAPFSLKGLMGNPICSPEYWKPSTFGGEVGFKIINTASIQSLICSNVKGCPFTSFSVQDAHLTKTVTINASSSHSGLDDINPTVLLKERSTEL

Row | Compound | GI50 (CCRF-CEM) | GI50 (K-562) | GI50 (SR) | GI50 (HOP-62) | GI50 (COLO 205) | GI50 (HCC-2998) | GI50 (HCT-15) | GI50 (HT29) | GI50 (M14) | GI50 (OVCAR-5 [2]) | GI50 (SK-OV-3) | GI50 (SN12C [3]) | GI50 [4] | TGI, subpanel average [4] | GI50 [5] | TGI, subpanel average [5] | GI50 [6] | TGI, subpanel average [6] | GI50 [7] | TGI, subpanel average [7] | further results
1 | Cc1ccc(-c2cc(C(F)(F)F)nn2-c2ccc(S(N)(=O)=O)cc2)cc1 [Celecoxib, celecoxib] | 12.6 µM | 10 µM | 15.8 µM | 63.1 µM | 15.8 µM | 15.8 µM | 15.8 µM | 15.8 µM | 63.1 µM | 19.9 µM | 19.9 µM | 15.8 µM | 12.3 µM | 29.27 µM | 20.7 µM | 41.39 µM | 17.2 µM | 31.62 µM | 22.5 µM | 38.49 µM | GI50 (SW-620): 15.8 µM; GI50 (SF-539): 19.9 µM; GI50 (LOX IMVI): 19.9 µM; GI50 (MDA-MB-435): 15.8 µM; GI50 (OVCAR-4 [1]): 12.6 µM; GI50 (OVCAR-8): 19.9 µM; GI50 (HS 578T): 19.9 µM; CC50 [4]: 67.1 µM; CC50 [5]: 66.5 µM; CC50 [6]: 58.8 µM; CC50 [7]: 64.3 µM; TGI MG-MID [8]: 34.0 µM; GI50 [8]: 17.5 µM; CC50 [8]: 63.3 µM
2 | CS(=O)(=O)Nc1ccc(C(=O)NN=Cc2ccccc2O)cc1 [Compound 7] | – | – | – | – | – | – | – | – | – | – | – | – | – | – | – | – | – | – | – | – | GI% (NCI-H226): 25%; GI% (SK-MEL-5): 33%; GI% (OVCAR-4 [9]): 53%; GI% (OVCAR-5 [10]): 23%; GI% (SN12C [11]): 23%; GI% (MDA-MB-468): 24%; IC50 (COX-2): 20.9 ± 0.82 µM
3 | CCN(CC)c1ccc(C=NNC(=O)c2ccc(NS(C)(=O)=O)cc2)c(O)c1 [Compound 8] | – | – | – | – | – | – | – | – | – | – | – | – | – | – | – | – | – | – | – | – | GI% (NCI-H226): 61%; GI50 (NCI-H226; [12]): 0.986 µM; GI% (SK-MEL-5): 100%; GI50 (SK-MEL-5; [12]): 1.13 µM; GI% (OVCAR-4 [9]): 69%; GI50 (OVCAR-4 [9]; [12]): 0.388 µM; GI% (OVCAR-5 [10]): 54%; GI50 (OVCAR-5 [10]; [12]): 1.89 µM; GI% (SN12C [11]): 69%; GI50 (SN12C [11]; [12]): 0.603 µM; GI% (MDA-MB-468): > 100%; GI50 (MDA-MB-468; [12]): 0.335 µM; IC50 (COX-2): 12.8 ± 0.51 µM
4 | C#Cc1cccc(Nc2ncnc3cc(OCCOC)c(OCCOC)cc23)c1 [Erlotinib, erlotinib] | 50.1 µM | 31.6 µM | 10 µM | 15.8 µM | 50.1 µM | 79.4 µM | 3.98 µM | 63.1 µM | 6.31 µM | 7.94 µM | 0.5 µM | 1.58 µM | 27.9 µM | 96.57 µM | 51.7 µM | c (compounds showed values ≥ 100 μM) | 17 µM | 82.11 µM | 23.7 µM | 77.89 µM | GI50 (NCI-H522): 1 µM; GI50 (SW-620): 79.4 µM; GI50 (SF-539): 19.9 µM; GI50 (LOX IMVI): 6.31 µM; GI50 (MDA-MB-435): 19.9 µM; GI50 (OVCAR-4 [1]): 10 µM; GI50 (OVCAR-8): 7.94 µM; GI50 (HS 578T): 6.31 µM; CC50 [4]: > 100 µM; CC50 [5]: > 100 µM; CC50 [6]: > 100 µM; CC50 [7]: 93.3 µM; TGI MG-MID [8]: 66.3 µM; GI50 [8]: 7.68 µM; CC50 [8]: 95.6 µM
5 | COc1cc2ncnc(Nc3ccc(F)c(Cl)c3)c2cc1OCCCN1CCOCC1 [Gefitinib, gefitinib] | 0.398 µM | 2.51 µM | 3.16 µM | 3.16 µM | 7.94 µM | 2.51 µM | 3.98 µM | 3.98 µM | 2 µM | 3.98 µM | 1 µM | 1.26 µM | 2.56 µM | 12.07 µM | 5.23 µM | 18.47 µM | 5.64 µM | 19.62 µM | 3.68 µM | 12.49 µM | GI50 (NCI-H522): 1 µM; GI50 (SF-539): 10 µM; GI50 (LOX IMVI): 3.16 µM; GI50 (MDA-MB-435): 3.16 µM; GI50 (HS 578T): 7.94 µM; TGI MG-MID [8]: 14.3 µM; GI50 [8]: 2.1 µM
6 | CNC(=O)c1cc(Oc2ccc(NC(=O)Nc3ccc(Cl)c(C(F)(F)F)c3)cc2)ccn1 [Sorafenib, sorafenib] | 1.99 µM | 3.16 µM | 3.16 µM | 1.99 µM | 1.99 µM | 3.16 µM | 2.51 µM | 1.99 µM | 1.99 µM | 3.16 µM | 2.51 µM | 2.51 µM | 1.91 µM | 42.12 µM | 2.19 µM | 7.94 µM | 2.33 µM | 7.64 µM | 1.87 µM | 6.29 µM | GI50 (NCI-H522): 1.99 µM; GI50 (SW-620): 2.51 µM; GI50 (OVCAR-4 [1]): 3.16 µM; GI50 (OVCAR-8): 3.16 µM; CC50 [4]: > 100 µM; CC50 [5]: 38.1 µM; CC50 [6]: 27.8 µM; CC50 [7]: 28.6 µM; TGI MG-MID [8]: 9.11 µM; GI50 [8]: 2.33 µM; CC50 [8]: 43.1 µM
